Data published in article PMC11769294, “(E)-1-(3-(3-Hydroxy-4-Methoxyphenyl)-1-(3,4,5-Trimethoxyphenyl)allyl)-1H-1,2,4-Triazole and Related Compounds: Their Synthesis and Biological Evaluation as Novel Antimitotic Agents Targeting Breast Cancer” (Pharmaceuticals, 2025).
Like-named read-outs stand apart in the source and are kept apart here.

How the values were obtained:
[1] = system: SNB-19 (CNS Cancer); experiment: NCI60 screen (SRB); assay type: cell-based, human; conditions: 48 h; for growth percent: one dose 10 µM
[2] = system: NCI 60 cancer cell line panel; experiment: NCI60 screen (SRB), all cell lines; assay type: cell-based, human; conditions: for mean growth percent: over the 60-cell line panel, one dose 10 µM
[3] = system: SR (Leukemia); experiment: NCI60 screen (SRB); assay type: cell-based, human; conditions: 48 h; for growth percent: one dose 10 µM
[4] = system: HCC-2998 (Colon Cancer); experiment: NCI60 screen (SRB); assay type: cell-based, human; conditions: 48 h; for growth percent: one dose 10 µM
[5] = Cytotoxicity in MCF-10A cells (alamarBlue); assay type: cell-based, human; conditions: human, MCF-10A non-tumorigenic mammary epithelial cells
Protocol: Figure 9 Effect of compounds 22a (A) and 22b (B) on the cell viability of non-tumorigenic MCF-10A human mammary epithelial cells at 24, 48, and 72 h. Cells were treated with the compounds 22a and 22b at concentrations of 10 μM, 1 μM, 0.5 μM, and 0.4 μM for 24, 48, or 72 h. […] Cell viability was expressed as a percentage of vehicle control (ethanol 1% (v/v)) and was determined by an alamarBlue assay (average ± SEM of three independent experiments). Two-way ANOVA (Bonferroni post-test) was used to test for statistical significance (*, p < 0.05; **, p < 0.01; ***, p < 0.001).
HL-60 cells were suspension cells and the seeding density for the viability assay was 25,000 cells/mL. MCF-7 cells (adherent) were cultured in Minimum Essential Media (MEM) with GlutaMAX™-I, supplemented with 1% (v/v) non-essential amino acids, 10% (v/v) fetal bovine serum (FBS), purchased from BD Biosciences (Edmund Halley Road, Oxford, UK), and 1% (v/v) penicillin/streptomycin 5000 U/mL. The MCF-7 cells used in the screening of the compounds during these experiments were mycoplasma-free. The seeding density of MCF-7 in the viability assay was 25,000 cells/mL and 50,000 cells/mL in the FACS assay. Normal breast cells (MCF-10A) (adherent) were cultured in Dulbecco’s Modified Eagle Medium: Nutrient Mixture F-12 (DMEM/F12; Gibco) supplemented with 5% horse serum (Invitrogen, Waltham, MA, USA), 20 ng/mL epidermal growth factor (Merck Millipore, Burlington, MA, USA), 0.5 μg/mL hydrocortisone (Sigma, Kanagawa, Japan), 100 ng/mL cholera toxin (Sigma), 10 μg/mL insulin (Sigma), and penicillin/streptomycin 5000 U/mL (1%) (Gibco, Waltham, MA, USA). […] MDA-MB-231 cells were cultured in Dulbecco’s Modified Eagle Medium, which was supplemented with 10% (v/v) fetal bovine serum (FBS) and 1% (v/v) penicillin/streptomycin 5000 U/mL. When not in use, all cells were kept in liquid nitrogen and frozen in a freezing media made of 90% FBS and 10% DMSO. All cells were grown in an atmosphere of 5% CO2/95% air in T75 culture flasks. The media was changed every 2–3 days and media was always prewarmed to 37 °C. All were sub-cultured every 3–4 days by trypsinization using TrypLE™ Express enzyme when confluence was reached to allow growth, prevent excessive cell death, and minimize the risk of infections derived by over-confluence. For the cell viability assay, the number of cells per milliliter was 25,000 cells/mL while the FACS assay utilized 50,000 cells/mL. Cells were maintained at 37 °C in 5% CO2 in a humidified incubator.
The biochemical assays were performed in triplicate and on at least three independent occasions to facilitate the determination of mean values. For the viability assay, cells were grown until 80% confluent. Adherent cells such as MCF-7, MDA-MB-231, and MCF-10A were trypsinized to detach them from the flask, counted as previously described, and seeded in 96 well plates with a seeding density of 25,000 cells /mL (200 µL of suspension in each well so that the final number of cells per well was 5000) and 1 × 10^4 cells/well seeding density for suspension HL-60 cells. Adherent cells were incubated for 24 h after being seeded in the 96 well plate and treated on the following day, while suspension cells were treated on the same day of the seeding. In both cases, the incubation time after the treatment with the drug was 72 h. After 68 h incubation, the AlamarBlue was added (20 µL in each well) and the incubation time was completed. After 72 h, the change in color was measured by spectrofluorimetry at an excitation wavelength of 544 nm and emission wavelength of 590 nm. AlamarBlue is a cell viability indicator containing a compound called resazurin. AlamarBlue is water soluble, stable in culture media, non-toxic, and is permeable through the cell membrane. When resazurin (blue) enters the live cells, it is reduced to the fluorescent molecule resorufin (pink).

[6] = system: HL-60 cells; experiment: alamarBlue cell viability assay; assay type: cell-based; conditions: Homo sapiens
Protocol: Figure 7 Preliminary cell viability data for (A) triazoles 22b–d, 22f, 22g and imidazole 23d and (B) triazoles 26a–e and imidazoles 27a, 27b, 27e, 27f, 27h and 27i in HL-60 cells. Cell proliferation of HL-60 cells was determined with an alamarBlue assay (seeding density 2.5 × 10^4 cells/mL per well for 96-well plates). Compound concentrations of either 1 or 0.1 μM for 72 h were used to treat the cells (in triplicate) with control wells containing vehicle ethanol (1% v/v). The mean value ± SEM for three independent experiments is shown. The positive control was CA-4 (1.0 μM and 0.1 μM).
HL-60 cells were suspension cells and the seeding density for the viability assay was 25,000 cells/mL. […]
The biochemical assays were performed in triplicate and on at least three independent occasions to facilitate the determination of mean values. […] Adherent cells such as MCF-7, MDA-MB-231, and MCF-10A were trypsinized to detach them from the flask, counted as previously described, and seeded in 96 well plates with a seeding density of 25,000 cells /mL (200 µL of suspension in each well so that the final number of cells per well was 5000) and 1 × 10^4 cells/well seeding density for suspension HL-60 cells. […] After 72 h, the change in color was measured by spectrofluorimetry at an excitation wavelength of 544 nm and emission wavelength of 590 nm. […]

[7] = biological target: CYP19 (aromatase) (Homo sapiens, UniProt P11511); experiment: Cytochrome P450 assay (DBF fluorescence); conditions: read-out: inhibition of CYP19
Chain of CYP19 (aromatase) (P11511 whole entry): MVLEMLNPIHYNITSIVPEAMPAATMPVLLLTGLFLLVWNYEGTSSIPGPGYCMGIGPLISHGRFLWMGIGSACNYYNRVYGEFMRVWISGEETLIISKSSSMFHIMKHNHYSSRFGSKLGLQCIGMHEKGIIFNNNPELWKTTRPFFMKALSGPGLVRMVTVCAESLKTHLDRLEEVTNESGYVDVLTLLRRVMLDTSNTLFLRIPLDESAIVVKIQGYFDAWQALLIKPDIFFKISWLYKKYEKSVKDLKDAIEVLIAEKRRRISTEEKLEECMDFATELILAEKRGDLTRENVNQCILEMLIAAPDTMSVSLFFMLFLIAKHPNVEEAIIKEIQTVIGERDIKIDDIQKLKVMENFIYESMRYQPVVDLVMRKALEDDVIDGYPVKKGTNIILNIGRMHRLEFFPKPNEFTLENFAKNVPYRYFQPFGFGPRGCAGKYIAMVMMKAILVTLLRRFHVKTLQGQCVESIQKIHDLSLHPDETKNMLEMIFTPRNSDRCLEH

[8] = system: tubulin in MCF-7 breast cancer cells; experiment: Immunofluorescence confocal microscopy of microtubules; assay type: cell-based, human; conditions: 16 h, 22b 10 μM, paclitaxel and phenstatin 1 μM
Protocol: Briefly, the MCF-7 cells were seeded at a density of 1 × 10^5 cells/mL on eight chamber glass slides (BD Biosciences). […] The cells were then washed in PBS, fixed for 20 min with 4% paraformaldehyde in PBS, and permeabilized in 0.5% Triton X-100. […] Images of the cells were obtained using Leica SP8 confocal microscopy (Wetzlar, Germany) with Leica application suite X software (Wetzlar, Germany). Experiments were performed on three independent occasions.
The micrograph images were obtained with Leica SP8 confocal microscopy utilizing Leica application suite X software. Representative confocal images of three separate experiments are shown. The scale bar indicates 25 μm.

[9] = biological target: CYP1A1 (Homo sapiens, UniProt P04798); experiment: Cytochrome P450 assay (DBF fluorescence)
Chain of CYP1A1 (P04798 whole entry): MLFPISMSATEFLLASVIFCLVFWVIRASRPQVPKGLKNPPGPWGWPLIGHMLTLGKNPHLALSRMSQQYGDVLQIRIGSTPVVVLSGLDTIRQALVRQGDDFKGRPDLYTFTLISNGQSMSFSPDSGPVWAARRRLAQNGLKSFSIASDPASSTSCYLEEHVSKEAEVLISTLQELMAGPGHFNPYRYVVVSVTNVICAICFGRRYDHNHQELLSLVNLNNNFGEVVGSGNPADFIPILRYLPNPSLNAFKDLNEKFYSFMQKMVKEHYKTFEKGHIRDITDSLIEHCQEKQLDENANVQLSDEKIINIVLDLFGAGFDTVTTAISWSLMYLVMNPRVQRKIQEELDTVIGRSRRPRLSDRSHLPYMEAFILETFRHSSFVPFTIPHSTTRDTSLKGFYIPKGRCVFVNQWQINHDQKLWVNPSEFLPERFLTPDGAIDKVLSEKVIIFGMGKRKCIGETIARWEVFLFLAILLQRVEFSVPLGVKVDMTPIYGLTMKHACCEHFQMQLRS

[10] = 1 μM, 24 h, read-out: cell viability

Compound | growth percent [1] [%] | mean growth percent ([2]; 48 h) [%] | growth percent [3] [%] | growth percent [4] [%] | viability at 72 h, 0.4 µM ([5]; 72 h) [%] | viability at 24 h, 1 µM [5, 10] [%] | viability at 48 h, 1 µM ([5]; 1 μM, read-out: viable cells) [%] | viability at 48 h, 10 µM ([5]; 10 μM, read-out: viable cells) [%] | further results
COc1cc(/C=C/C(/C=C/c2cc(OC)c(OC)c(OC)c2)n2ccnc2)cc(OC)c1OC [Compound 30, 1-((1E,4E)-1,5-bis(3,4,5-trimethoxyphenyl)penta-1,4-dien-3-yl)-1H-imidazole] | 89.08 | 81.3 | 31.50 | 99.87 |  |  |  |  | 
COc1ccc(/C=C/C(c2cc(OC)c(OC)c(OC)c2)n2cncn2)cc1O (stereo not shown) [Compound 22b, (E)-5-(3-(1H-1,2,4-Triazol-1-yl)-3-(3,4,5-trimethoxyphenyl)prop-1-en-1-yl)-2-methoxyphenol] | 34.19 | 29.9 | 5.67 | 67.70 | > 80 | 100 | > 80 | ~30 | viability at 72 h, 0.5 µM ([5]; 0.5 μM, 72 h, read-out: cell viability): 80%; viability at 72 h, 1 µM ([5]; 1 μM, 72 h, read-out: cell viability): 55%; viability at 72 h, 10 µM ([5]; 10 μM, 72 h, read-out: cell viability): 24%; IC50 ([1]; Homo sapiens, five-dose, read-out: IC50 (cell marked * in GI50 column) (converted)): 25.7 µM; IC50 [6]: 370 nM; IC50 ([6]; 72 h): 366 ± 130 nM; GI50 ([2]; Homo sapiens, 48 h, five-dose, 48 h, read-out: MG-MID (mean of GI50 values over all cell lines)): 371 nM; GI50 ([2]; Homo sapiens, Figure 8, concentration in molar, read-out: Log 10 GI-50 Mean (converted)): 2140 nM; IC50 ([2]; Homo sapiens, Figure 8, concentration in molar, read-out: Log 10 IC-50 Mean (converted)): 2880 nM; LC50 (50% lethal concentration) ([2]; Homo sapiens, over all 60 cell lines, five-dose): > 100 µM; GI50 ([2]; five-dose, 48 h, read-out: MG-MID (mean of GI50 values over all cell lines)): 372 nM; TGI (total growth inhibition) ([2]; over all 60 cell lines, five-dose): 57.5 µM; inhibition at 50 µM [7]: 93%; effect on microtubule network [8]: disorganized microtubule network structure similar to that observed with phenstatin, together with multinucleation; IC50 [9]: > 53 µM; GI50 ([3]; Homo sapiens, five-dose): 24.8 nM; GI50 ([4]; Homo sapiens, five-dose): 3000 nM
COc1ccc(/C=C/C(c2cc(OC)c(OC)c(OC)c2)n2cncn2)cc1 (stereo not shown) [Compound 22a, (E)-1-(3-(4-Methoxyphenyl)-1-(3,4,5-trimethoxyphenyl)allyl)-1H-1,2,4-triazole] | 49.01 | 41.9 | 18.93 | 84.15 | > 80 | 100 | > 80 | ~57 | viability at 24 h, 10 µM ([5]; 10 μM, 24 h, read-out: viable cells): 78%
COc1ccc(/C=C/C(c2cc(OC)c(OC)c(OC)c2)n2ccnc2)cc1O (stereo not shown) [Compound 23b, (E)-5-(3-(1H-Imidazol-1-yl)-3-(3,4,5-trimethoxyphenyl)prop-1-en-1-yl)-2-methoxyphenol] | 47.27 | 39.7 | 6.18 | 76.97 |  |  |  |  | 
COc1ccc(C2CC(n3ccnc3)c3cc(OC)c(OC)c(OC)c32)cc1O (stereo not shown) [Compound 27a, 5-(3-(1H-Imidazol-1-yl)-5,6,7-trimethoxy-2,3-dihydro-1H-inden-1-yl)-2-methoxyphenol] | 93.73 | 79.2 | 35.42 | 99.22 |  |  |  |  | 
